One may read the Ki as a dissociation constant, usually derived from enzyme kinetics or from competition with a known ligand. High values mean lower affinity, low ones higher affinity.

The target of this experiment is T1, Adenosine receptor A1 (Bos taurus, UniProt P28190).
T1 sequence (P28190 whole entry): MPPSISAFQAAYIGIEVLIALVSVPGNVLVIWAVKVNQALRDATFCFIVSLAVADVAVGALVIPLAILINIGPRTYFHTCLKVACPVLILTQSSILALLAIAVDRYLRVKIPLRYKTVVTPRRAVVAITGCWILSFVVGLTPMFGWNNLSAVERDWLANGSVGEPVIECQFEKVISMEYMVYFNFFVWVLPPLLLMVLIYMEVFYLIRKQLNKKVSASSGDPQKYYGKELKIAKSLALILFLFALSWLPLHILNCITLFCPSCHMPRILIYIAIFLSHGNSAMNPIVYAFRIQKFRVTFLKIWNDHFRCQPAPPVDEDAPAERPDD
As to `CCCn1c(=O)[nH]c(=O)c2[nH]cnc21` [3-Propylxanthine (enprofylline)], the Ki is above 10 µM.

`Cn1c(=O)c2c(ncn2C)n(C)c1=O`: the Ki is above 10 µM.

With `O=c1[nH]c(=O)c2[nH]cnc2[nH]1` [NSC_1188], the Ki is above 10 µM. Molecule `CC(=O)Oc1ccc(-c2nc3c([nH]2)c(=O)n(C)c(=O)n3C)cc1` [8-(4-Acetoxyphenyl)theophylline] returned a Ki of 0.023 µM. The result for `Cn1c(=O)c2c(ncn2C[C@H](O)CO)n(C)c1=O` [Diprophylline] reads above 10 µM; that for `CCN(CC)CCn1cnc2c1c(=O)n(C)c(=O)n2C` [NSC_28329], above 10 µM. The molecule `CC(C)Cn1c(=O)n(C)c(=O)c2[nH]cnc21` [1-methyl-3-(2-methylpropyl)-2,3,6,7-tetrahydro-1H-purine-2,6-dione] came in with a Ki of 2.5 µM. This lies in the single-digit micromolar range.

As to `CC(=O)CCCCn1c(=O)c2c(ncn2C)n(C)c1=O` [1-(5-Oxohexyl)theobromine (pentoxifylline)], the inhibitory constant (Ki) is above 10 µM. With `CCCn1c(=O)c2[nH]c(-c3ccc(Cl)cc3N)nc2n(CCC)c1=O` [NSC_92411], the Ki amounted to 0.0003 µM. The molecule `Cn1c(=O)[nH]c2ncn(C)c2c1=O` [1,7-dimethylxanthine] gave a Ki above 10 µM. Take `CC(O)Cn1c(=O)c2c(ncn2C)n(C)c1=O` (stereo unspecified) [NSC_66120]: the Ki was above 10 µM. Take `CCCn1c(=O)c2nc(-c3ccc(O)cc3)[nH]c2n(CCC)c1=O` [8-(4-Hydroxy-phenyl)-1,3-dipropyl-3,9-dihydro-purine-2,6-dione]: the Ki worked out at 0.0032 µM. As for `Cn1cnc2c1c(=O)[nH]c(=O)n2C` [theobromine], the Ki is above 10 µM. For the molecule `Cn1c(=O)c2nc(-c3ccc(O)cc3)[nH]c2n(C)c1=O` [8-(4-Hydroxy-phenyl)-1,3-dimethyl-3,7-dihydro-purine-2,6-dione], the Ki worked out at 0.0034 µM. In turn, `CC(O)Cn1cnc2c1c(=O)n(C)c(=O)n2C` (stereo unspecified) [7-(2-Hydroxy-propyl)-1,3-dimethyl-3,7-dihydro-purine-2,6-dione(Proxyphylline)] had a Ki above 10 µM. The molecule `Cn1c(=O)c2c(ncn2CCO)n(C)c1=O` [BETA-HYDROXYETHYL THEOPHYLLINE] yielded a Ki above 10 µM.

(Values after BindingDB's records for doi:10.1007/bf00572436 (1985).)
